Read-outs that look alike come from different tables or passages of the source. Ends that are not written are not given here.
How the values were obtained:
BoLA-DRB3*2703 = assay type: binding, bovine
[1] = test system: peptide-specific T-lymphocytes from BMC of a cow homozygous for BoLA-DRB3*2703; assay type: cell-based, Holstein cow
[2] = test system: CD4+ and CD8+ peptide-specific T-lymphocytes from BMC of a cow homozygous for BoLA-DRB3*2703; assay type: cell-based, Holstein cow
[3] = test system: IFN-γ production by peptide-specific T-lymphocytes; assay type: cell-based, Holstein cow
[4] = biological target: BoLA-DRB3*2703 class II molecule (bovine); assay: competitive peptide binding to pu
[5] = biological target: BoLA-DRB3*2703 class II molecule (bovine)
[6] = biological target: BoLA-DRB3*2703 class II molecule (bovine); assay: binding of labelled peptide to pu

| Molecule | Binding affinity (designated high or low) (BoLA-DRB3*2703) | DNA synthesis of T-cells compared to naive cell cultures (in words) [1] | IC50 [4] [µM] | further results |
| --- | --- | --- | --- | --- |
| KISQAVHAAHA [OVA332] | Low | not significantly different | – | IC50 (BoLA-DRB3*2703; read-out: concentration required to inhibit BoLA class II-self-peptide binding by 50% (IC50)): > 640 µM |
| QAVHAAHAEINE [OVA336] | Low | not significantly different | – | cell divisions of CD8+lo T-lymphocytes compared to the naive lymphocyte culture [2]: more cell divisions; IFN-γ in culture supernatant compared to the naive cell culture [3]: less; IFN-γ in culture supernatant compared to the naive cell culture ([3]; 18 h): less |
| SSAESLKISQAV [OVA327] | Low | significantly lower | – | – |
| ISQAVHAAHAEINEAGR [OVA339[323-339]] | – | – | 72.2 | – |
| SIINNYYMQQYQNSM (not fully specified) [FMD-VP4[20-34]] | – | – | – | IC50 [5]: 46.5 µM |
| ISQAVHAAHAEIN [OVA335[323-335]] | – | – | 26.9 | – |
| DVNEFRAVTPLGRPDAE (not fully specified) [Biotinylated self-peptide DQ] | – | – | – | other [6]: 58.2 pixels |
| DVNEFRAVTPLGRPDAE [Self-peptide DQ (unlabelled competitor)] | – | – | 16.1 | – |
| SSAESLKISQAV [OVA327[316-327]] | – | – | > 320 | – |
| QAVHAAHAEINE [OVA336[325-336]] | – | – | > 320 | – |

From publication PMC3238229 (Genetics, Selection, Evolution : GSE, 2003)
